Test results as given in patent US10202361B2, “Pyridazinones as herbicides” (E I DU PONT DE NEMOURS AND COMPANY, priority 2014, dated 2019).
Like-named read-outs stand apart in the source and are kept apart here.

Columns and labels:
Type in all cases: in vivo
[1] = system: crabgrass, Large (large crabgrass, Digitaria sanguinalis); test: Test A pre-/postemergence greenhouse herbicide test; details: Digitaria sanguinalis, 240 h, 0 to 100 scale (0 no effect, 100 complete control), approx. 10 d, read-out: Plant response rating, Crabgrass, Large; for pest or weed control at 125 g/ha: 125 g ai/ha; for pest or weed control at 500 g/ha: 500 g ai/ha
How it was run: (§1)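 Greenhouse pot test, loam/sand soil. Pre: directed soil spray at seeding; post: foliar spray, 1–2 leaf, 2–10 cm height, same day. Read-out ~10 d: visual % control, 0–100 scale vs untreated.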

[2] = system: pigweed (Amaranthus retroflexus); test: as above; details: Amaranthus retroflexus, 240 h, 0 to 100 scale (0 no effect, 100 complete control), approx. 10 d, read-out: Plant response rating, Pigweed; for pest or weed control at 125 g/ha: 125 g ai/ha; for pest or weed control at 500 g/ha: 500 g ai/ha
How it was run: as §1

[3] = system: wheat (Triticum aestivum); test: as above; details: Triticum aestivum, 240 h, 0 to 100 scale (0 no effect, 100 complete control), approx. 10 d, read-out: Plant response rating, Wheat; for plant injury at 125 g/ha: 125 g ai/ha; for plant injury at 500 g/ha: 500 g ai/ha
How it was run: as §1

[4] = system: barnyardgrass (Echinochloa crus-galli); test: Test C pre-/postemergence greenhouse herbicide test; details: Barnyardgrass
How it was run: (§2)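 Visual ratings, 0 = no effect, 100 = complete control, vs untreated controls at 13–15 d. Pre: seeds in loam/sand. Post: 2–18 cm plants (1–4 leaf), peat/vermiculite mix. Surfactant-containing solvent formulation; greenhouse.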

[5] = system: blackgrass (Alopecurus myosuroides); test: as above; details: Alopecurus myosuroides, Blackgrass, read-out: Plant response rating; for pest or weed control at 31 g/ha: 31 g ai/ha; for pest or weed control at 62 g/ha: 62 g ai/ha; for pest or weed control at 125 g/ha: 125 g ai/ha; for pest or weed control at 250 g/ha: 250 g ai/ha
How it was run: as §2

[6] = system: corn (Zea mays); test: as above; details: Zea mays, Corn, read-out: Plant response rating; for plant injury at 31 g/ha: 31 g ai/ha; for plant injury at 62 g/ha: 62 g ai/ha; for plant injury at 125 g/ha: 125 g ai/ha; for plant injury at 250 g/ha: 250 g ai/ha
How it was run: as §2

[7] = system: crabgrass, Large (large crabgrass, Digitaria sanguinalis); test: as above; details: Digitaria sanguinalis, Crabgrass, Large, read-out: Plant response rating; for pest or weed control at 31 g/ha: 31 g ai/ha; for pest or weed control at 62 g/ha: 62 g ai/ha; for pest or weed control at 125 g/ha: 125 g ai/ha; for pest or weed control at 250 g/ha: 250 g ai/ha
How it was run: as §2

[8] = system: johnsongrass (Sorghum halepense); test: as above; details: Sorghum halepense, Johnsongrass, read-out: Plant response rating; for pest or weed control at 31 g/ha: 31 g ai/ha; for pest or weed control at 62 g/ha: 62 g ai/ha; for pest or weed control at 125 g/ha: 125 g ai/ha; for pest or weed control at 250 g/ha: 250 g ai/ha
How it was run: as §2

[9] = system: soybean (Glycine max); test: as above; details: Glycine max, Soybean, read-out: Plant response rating; for plant injury at 62 g/ha: 62 g ai/ha; for plant injury at 125 g/ha: 125 g ai/ha; for plant injury at 250 g/ha: 250 g ai/ha
How it was run: as §2

[10] = system: wheat (winter wheat, Triticum aestivum); test: as above; details: Triticum aestivum, Wheat, read-out: Plant response rating; for plant injury at 62 g/ha: 62 g ai/ha; for plant injury at 125 g/ha: 125 g ai/ha; for plant injury at 250 g/ha: 250 g ai/ha
How it was run: as §2

[11] = post-emergence, Postemergence, 31 g ai/ha

## COc1cc(=O)n(-c2ccc(F)cc2)nc1Cc1ccnc(C(F)(F)F)c1 [Compound 17, 2-(4-fluorophenyl)-5-methoxy-6-[[2-(trifluoromethyl)-4-pyridinyl]methyl]-3 (2H)-pyridazinone]
[1]; post-emergence, Postemergence
  pest or weed control at 125 g/ha: 90%
  pest or weed control at 500 g/ha: 90%
[1]; pre-emergence, Preemergence
  pest or weed control at 125 g/ha: 100%
  pest or weed control at 500 g/ha: 100%
[2]; post-emergence, Postemergence
  pest or weed control at 125 g/ha: 100%
  pest or weed control at 500 g/ha: 100%
[2]; pre-emergence, Preemergence
  pest or weed control at 125 g/ha: 100%
  pest or weed control at 500 g/ha: 100%
[3]; post-emergence, Postemergence
  plant injury at 125 g/ha: 60%
  plant injury at 500 g/ha: 70%
[3]; pre-emergence, Preemergence
  plant injury at 125 g/ha: 20%
  plant injury at 500 g/ha: 50%
[4]; Postemergence, 31 g ai/ha
  Plant response rating: 5
[4]; Postemergence, 62 g ai/ha
  Plant response rating: 5
[4]; Postemergence, 125 g ai/ha
  Plant response rating: 10
[4]; Postemergence, 250 g ai/ha
  Plant response rating: 35
[4]; Preemergence, 31 g ai/ha
  Plant response rating: 80
[4]; Preemergence, 62 g ai/ha
  Plant response rating: 90
[4]; Preemergence, 125 g ai/ha
  Plant response rating: 100
[4]; Preemergence, 250 g ai/ha
  Plant response rating: 100
[5]; post-emergence, Postemergence
  pest or weed control at 31 g/ha: 5%
  pest or weed control at 62 g/ha: 5%
  pest or weed control at 125 g/ha: 5%
  pest or weed control at 250 g/ha: 5%
[5]; pre-emergence, Preemergence
  pest or weed control at 31 g/ha: 50%
  pest or weed control at 62 g/ha: 80%
  pest or weed control at 125 g/ha: 90%
  pest or weed control at 250 g/ha: 95%
[6]; post-emergence, Postemergence
  plant injury at 31 g/ha: 10%
  plant injury at 62 g/ha: 15%
  plant injury at 125 g/ha: 15%
  plant injury at 250 g/ha: 15%
[6]; pre-emergence, Preemergence
  plant injury at 31 g/ha: 45%
  plant injury at 62 g/ha: 65%
  plant injury at 125 g/ha: 85%
  plant injury at 250 g/ha: 100%
[7]; post-emergence, Postemergence
  pest or weed control at 31 g/ha: 10%
  pest or weed control at 62 g/ha: 10%
  pest or weed control at 125 g/ha: 15%
  pest or weed control at 250 g/ha: 40%
[7]; pre-emergence, Preemergence
  pest or weed control at 31 g/ha: 100%
  pest or weed control at 62 g/ha: 100%
  pest or weed control at 125 g/ha: 100%
  pest or weed control at 250 g/ha: 100%
[8]; post-emergence, Postemergence
  pest or weed control at 31 g/ha: 5%
  pest or weed control at 62 g/ha: 5%
  pest or weed control at 125 g/ha: 5%
  pest or weed control at 250 g/ha: 65%
[8]; pre-emergence, Preemergence
  pest or weed control at 31 g/ha: 70%
  pest or weed control at 62 g/ha: 95%
  pest or weed control at 125 g/ha: 98%
  pest or weed control at 250 g/ha: 100%
[9]; [11]
  plant injury at 31 g/ha: 80%
[9]; post-emergence, Postemergence
  plant injury at 62 g/ha: 90%
  plant injury at 125 g/ha: 90%
  plant injury at 250 g/ha: 90%
[9]; pre-emergence, Preemergence
  plant injury at 62 g/ha: 55%
  plant injury at 125 g/ha: 95%
  plant injury at 250 g/ha: 98%
[10]; [11]
  plant injury at 31 g/ha: 5%
[10]; post-emergence, Postemergence
  plant injury at 62 g/ha: 5%
  plant injury at 125 g/ha: 5%
  plant injury at 250 g/ha: 10%
[10]; pre-emergence, Preemergence
  plant injury at 62 g/ha: 5%
  plant injury at 125 g/ha: 50%
  plant injury at 250 g/ha: 65%
